Results published in ChEMBL document CHEMBL1240454, “1,3-Dioxolane-based ligands incorporating a lactam or imide moiety: structure-affinity/activity relationship at alpha1-adrenoceptor subtypes and at 5-HT1A receptors” (Eur J Med Chem, 2010).

What was measured:
[1] = molecular target: T1, 5-hydroxytryptamine receptor 1A (Homo sapiens) (UniProt P08908); assay: Agonist activity at human cloned 5HT1A receptor expressed in human HeLa cells assessed as stimulation of [35S]GTPgammaS binding after 20 mins by liquid scintillation counting relative to maximal 5HT response; format: functional, cell-based
T1 sequence (whole entry): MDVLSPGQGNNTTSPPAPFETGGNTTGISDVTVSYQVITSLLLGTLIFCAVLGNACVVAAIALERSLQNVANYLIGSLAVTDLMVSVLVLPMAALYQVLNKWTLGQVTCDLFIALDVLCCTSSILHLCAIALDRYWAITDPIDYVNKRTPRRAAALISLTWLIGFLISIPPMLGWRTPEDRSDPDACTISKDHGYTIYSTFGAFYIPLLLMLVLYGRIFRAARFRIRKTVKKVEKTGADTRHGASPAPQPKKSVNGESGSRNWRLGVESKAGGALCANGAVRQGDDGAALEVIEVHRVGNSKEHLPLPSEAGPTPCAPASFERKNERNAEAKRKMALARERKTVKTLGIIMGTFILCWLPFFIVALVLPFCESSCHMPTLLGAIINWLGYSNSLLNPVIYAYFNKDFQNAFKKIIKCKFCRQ

[2] = molecular target: T2, 5-hydroxytryptamine receptor 1A (Homo sapiens, UniProt P08908)
T2 sequence (P08908 whole entry): T1 sequence (whole entry)

[3] = molecular target: T1, 5-hydroxytryptamine receptor 1A (Homo sapiens); assay: Agonist activity at human cloned 5HT1A receptor expressed in human HeLa cells assessed as stimulation of [35S]GTPgammaS binding after 20 mins by liquid scintillation counting; format: functional, cell-based
[4] = molecular target: T3, Alpha-1D adrenergic receptor (Rattus norvegicus) (UniProt P23944); assay: Antagonist activity at adrenergic Alpha-1D receptor in Wistar rat thoracic aorta assessed as inhibition of (-)-norepinephrine-induced vasocontraction treated 30 mins before (-)norepinephrine challenge; format: functional, tissue-based
T3 sequence (whole entry): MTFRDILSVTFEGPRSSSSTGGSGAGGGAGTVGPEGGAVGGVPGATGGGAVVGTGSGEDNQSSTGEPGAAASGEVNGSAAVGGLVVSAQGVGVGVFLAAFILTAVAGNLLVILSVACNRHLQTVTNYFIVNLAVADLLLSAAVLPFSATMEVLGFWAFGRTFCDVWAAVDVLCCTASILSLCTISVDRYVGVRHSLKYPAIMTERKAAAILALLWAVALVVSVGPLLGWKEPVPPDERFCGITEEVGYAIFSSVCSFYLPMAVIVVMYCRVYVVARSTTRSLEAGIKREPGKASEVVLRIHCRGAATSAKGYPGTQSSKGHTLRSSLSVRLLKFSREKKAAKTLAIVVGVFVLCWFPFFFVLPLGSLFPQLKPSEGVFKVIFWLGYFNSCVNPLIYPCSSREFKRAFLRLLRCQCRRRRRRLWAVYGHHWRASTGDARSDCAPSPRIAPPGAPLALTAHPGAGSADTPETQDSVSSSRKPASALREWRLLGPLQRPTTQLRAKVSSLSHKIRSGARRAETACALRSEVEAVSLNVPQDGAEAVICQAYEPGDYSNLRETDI

[5] = molecular target: T1, 5-hydroxytryptamine receptor 1A (Homo sapiens); conditions: HeLa
[6] = molecular target: T2, 5-hydroxytryptamine receptor 1A; assay: Binding affinity to 5HT1A receptor
[7] = Selectivity for adrenergic alpha1 receptor over 5HT1A receptor

| SMILES | Emax [1] [%] | Ki [2] [nM] | pD2 [3] | pKb [4] | pKb [5] | Ki [6] [nM] | Selectivity ratio [7] |
| --- | --- | --- | --- | --- | --- | --- | --- |
| COc1ccccc1N1CCN(C[C@@H]2CO[C@@](CN3C(=O)CC4(CCCC4)CC3=O)(c3ccccc3)O2)CC1 (relative stereo) | 60 | 1.26 | 7.98 | 8.51 |  |  |  |
| COc1ccccc1N1CCN(C[C@H]2CO[C@@](CN3CCCCC3=O)(c3ccccc3)O2)CC1 |  | 5.25 |  | 6.74 | 7.38 |  |  |
| COc1ccccc1N1CCN(C[C@H]2CO[C@](CN3CCCC3=O)(c3ccccc3)O2)CC1 (relative stereo) |  | 6.92 |  | 6.79 | 7.16 |  |  |
| COc1ccccc1N1CCN(C[C@@H]2CO[C@@](CN3C(=O)CCCC3=O)(c3ccccc3)O2)CC1 (relative stereo) |  | 44.7 |  | 7.57 |  |  |  |
| COc1ccccc1N1CCN(CC2OCC(c3ccccc3)(c3ccccc3)O2)CC1 (stereo unspecified) | 16 | 22.9 | 8.3 | 8.14 |  | 15.1 | 100 |
| COc1ccccc1N1CCN(C[C@@H]2CO[C@](CN3CCCC3=O)(c3ccccc3)O2)CC1 (relative stereo) | 34 | 11.2 | 7.14 | 7.43 |  |  |  |
| COc1ccccc1N1CCN(C[C@H]2CO[C@@](CN3C(=O)CCC3=O)(c3ccccc3)O2)CC1 (relative stereo) | 45 | 5.13 | 7.05 | 6.42 |  |  |  |
| COc1ccccc1N1CCN(C[C@@H]2CO[C@@](CN3C(=O)CCC3=O)(c3ccccc3)O2)CC1 (relative stereo) |  | 25.7 |  | 7.78 |  |  |  |
| COc1ccccc1N1CCN(C[C@@H]2CO[C@@](CN3CCCCC3=O)(c3ccccc3)O2)CC1 (relative stereo) |  | 5.13 |  | 7.29 | 7.39 |  |  |
| COc1ccccc1N1CCN(C[C@H]2CO[C@@](CN3C(=O)CC4(CCCC4)CC3=O)(c3ccccc3)O2)CC1 (relative stereo) | 49 | 2.63 | 7.8 | 6.78 |  |  |  |
| COc1ccccc1N1CCN(C[C@@H]2CO[C@@](CN3CCCCCC3=O)(c3ccccc3)O2)CC1 (relative stereo) | 39 | 7.24 | 6.57 | 7.75 |  |  |  |
| COc1ccccc1N1CCN(C[C@H]2CO[C@@](CN3CCCCCC3=O)(c3ccccc3)O2)CC1 (relative stereo) |  | 5.62 |  | 7.57 | 7.25 |  |  |
| COc1ccccc1N1CCN(C[C@H]2CO[C@@](CN3C(=O)CCCC3=O)(c3ccccc3)O2)CC1 (relative stereo) | 34 | 3.16 | 7.23 | 6.19 |  |  |  |
